Data reported in patent US9302986B2, “Substituted 3-haloallylamine inhibitors of ASSAO and uses thereof” (Boehringer Ingelheim International GmbH, priority 2012, dated 2016).
Where a name gives a salt, the structure may show the parent alone.

Key:
Recombinant human DAO = Recombinant human DAO (Homo sapiens (Human), UniProt P19801); experiment: Inhibition of human recombinant diamine oxidase; format: biochemical; conditions: putrescine 200 μM
[1] = biological target: Endogenous SSAO/VAP-1 in rat fat (Rattus norvegicus (Rat), UniProt O08590); experiment: Inhibition of SSAO/VAP-1 in rat fat homogenate; format: biochemical; conditions: benzylamine 30 μM
Sequence of Endogenous SSAO/VAP-1 in rat fat (O08590 whole entry): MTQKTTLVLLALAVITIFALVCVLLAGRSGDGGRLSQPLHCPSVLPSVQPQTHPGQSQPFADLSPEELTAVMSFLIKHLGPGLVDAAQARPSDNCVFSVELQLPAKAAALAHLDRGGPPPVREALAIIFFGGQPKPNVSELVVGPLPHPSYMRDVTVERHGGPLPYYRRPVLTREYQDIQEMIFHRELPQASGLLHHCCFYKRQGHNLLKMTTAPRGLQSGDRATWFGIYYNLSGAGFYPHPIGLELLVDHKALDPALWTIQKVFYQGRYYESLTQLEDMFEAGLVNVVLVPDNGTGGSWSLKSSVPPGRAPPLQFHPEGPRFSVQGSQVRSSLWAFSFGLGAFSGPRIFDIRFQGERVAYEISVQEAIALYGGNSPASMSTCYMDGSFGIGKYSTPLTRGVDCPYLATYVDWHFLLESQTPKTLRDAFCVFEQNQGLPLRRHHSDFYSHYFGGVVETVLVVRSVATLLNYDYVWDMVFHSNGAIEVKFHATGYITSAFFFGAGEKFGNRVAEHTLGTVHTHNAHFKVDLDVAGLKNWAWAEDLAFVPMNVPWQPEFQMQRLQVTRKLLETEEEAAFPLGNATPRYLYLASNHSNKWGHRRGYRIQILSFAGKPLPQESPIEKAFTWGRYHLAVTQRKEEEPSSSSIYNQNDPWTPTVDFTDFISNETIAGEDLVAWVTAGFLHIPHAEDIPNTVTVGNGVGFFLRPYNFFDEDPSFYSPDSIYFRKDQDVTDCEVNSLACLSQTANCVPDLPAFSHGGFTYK
Protocol: Abdominal fat from BALB/c mice, Wistar or Sprague Dawley rats, which are tissues enriched with SSAO/VAP-1-were surgically removed. For every gram of animal abdominal fat tissue, 1 mL of 0.1 M NaPO4 buffer (pH 7.4) was added. Tissues were homogenized using IKA Ultra-Turrax T 10 homogenizer for 3 min, homogenate was centrifuged for 15 min at 3000×g. The middle layer (clear supernatant) was removed without disturbing the top layer (high fat content) or the debris on the bottom of the tube. SSAO/VAP-1 activity was determined by checking the fluorescent signal. Km/Vmax values were determined and the fat homogenate was aliquoted and stored at −80 C until assays were performed.

recombinant human VAP-1 = recombinant human VAP-1 (Homo sapiens, UniProt Q16853); experiment: Inhibition of human recombinant SSAO/VAP-1 expressed in HMEC cells (cell lysate)
Protocol: A clone stably expressing human SSAO/VAP-1 was selected and was stored in liquid nitrogen until cell lysate was required for colorimetric assay. Briefly, HMEC cell expressing human SSAO/VAP-1 were grown in several 10 cm petri dishes, once the cells reached 100% confluency, cells were harvested and homogenates were prepared. Cells were washed twice with 5 mL of chilled HES buffer (20 mM HEPES, 1 mM EDTA, 250 mM sucrose, pH 7.4). HES buffer containing 1× protease inhibitor (Sigma Aldrich) and added and cells were incubated on ice for 3 min. Buffer was removed and cells were scraped and transferred to a centrifuge tube. Cell lysates were prepared by passing through 23 G needle for, 10 times and followed by 27 G needle for 10 times. Alternatively the cell lysates were prepared by using IKA Ultra-Turrax T 10 homogenizer for 3 min for every 10 mL of cell suspensions. Cells were then spun for 5 min at 300×g. The clear supernatant was transferred to new centrifuge tube and stored at −80° C. until colorimetric assay was performed. Prior to the assay, 0.5 mM pargyline was added in order to inhibit any residue MAO activities. […] Briefly, 50 μL of cell lysate was incubated with test compounds for 30 min at 37° C.

Recombinant human MAO-B = Recombinant human MAO-B (Homo sapiens (Human), UniProt P27338); experiment: Inhibition of human recombinant MAO-B; format: biochemical; conditions: benzylamine 100 μM
Sequence of Recombinant human MAO-B (P27338 whole entry): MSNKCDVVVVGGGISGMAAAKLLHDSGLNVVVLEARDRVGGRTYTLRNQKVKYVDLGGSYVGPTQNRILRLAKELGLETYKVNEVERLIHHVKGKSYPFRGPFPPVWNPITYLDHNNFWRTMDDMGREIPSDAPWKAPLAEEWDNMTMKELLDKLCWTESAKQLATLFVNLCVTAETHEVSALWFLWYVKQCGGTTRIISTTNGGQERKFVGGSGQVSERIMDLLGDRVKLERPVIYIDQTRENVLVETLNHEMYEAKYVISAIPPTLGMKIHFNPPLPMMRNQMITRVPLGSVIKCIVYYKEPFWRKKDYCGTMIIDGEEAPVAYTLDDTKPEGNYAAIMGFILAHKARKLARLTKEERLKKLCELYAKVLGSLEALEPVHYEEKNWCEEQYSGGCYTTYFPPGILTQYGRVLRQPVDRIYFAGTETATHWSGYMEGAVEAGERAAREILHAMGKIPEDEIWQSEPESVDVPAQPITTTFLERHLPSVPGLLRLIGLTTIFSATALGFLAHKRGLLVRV
Protocol: This vector containing human SSAO/VAP-1 residues was transfected into CHO-K1 glycosylation mutant cell line, Lec 8. A clone stably expressing human SSAO/VAP-1 was isolated and cultured in large scale. Active human SSAO/VAP-1 was purified and recovered using immunoaffinity chromatography. This was used as source for SSAO/VAP-1 activity. A high-throughput colorimetric assay was developed using either 96 or 384 well format. Briefly, in a standard 96 well plate assay 50 μL of purified human SSAO/VAP-1 (0.25 μg/mL) in 0.1 M NaPO4 buffer (pH 7.4) was added into each well.
The specificity of invention compounds was tested by determining their ability to inhibit MAO-B activities in vitro. Recombinant human MAO-B (0.06 mg/mL; Sigma Aldrich) was used as source of MAO-B enzyme activities.

[2] = test system: LPS-induced neuroinflammation; experiment: Parkinson's disease Model A: systemic exposure to LPS; format: in vivo, Long Evans rats; conditions: 2 mg/kg ip
Protocol: Parkinson's disease is a pathological, age-related neurodegenerative disorder, characterized by a specific and progressive degeneration of dopaminergic neurons.
Long Evans rats were dosed intraperitoneal (ip) with 2 mg/kg of Compound 9 or vehicle 1 h before the first (time 0 h) and the third (time 24 h) injections of LPS. At time 0 the animals received a dose of 10 mg/kg of LPS. At time 6 and 24 h the animals were dosed with 3 mg/kg of LPS solution, ip. 30 h after the first LPS injection, the animals received ip injections of lethabarb and were transcardially perfused with 400 ml. PBS at 4° C. followed by 400 ml of 4% paraformaldehyde (PFA). The brains were post fixed overnight in 4% PFA at 4° C. followed by 20% sucrose solution for 24 h. 30 μm sections were collected and stained for immunofluorescence, immunohistochemistry and western blot analysis.

[3] = test system: LPS-induced lung inflammation; experiment: Acute lung inflammation in the LPS driven model; conditions: 2 mg/kg
Protocol: The incision was closed with wound clips and the mice returned to cages.
Six hours after LPS/saline injection, the mice were anesthetized, the wound clips removed, the trachea was cannulated with a 23G blunt needle, and the lungs lavaged eight times with 0.5 ml heparinized saline. The lavage was pooled, gently inverted, and a sample retained for white blood cell (WBC) differential analysis. The remainder of the lavage was centrifuged, the supernatants used for cytokine analysis.

Sequence of Recombinant human DAO (P19801 20-751): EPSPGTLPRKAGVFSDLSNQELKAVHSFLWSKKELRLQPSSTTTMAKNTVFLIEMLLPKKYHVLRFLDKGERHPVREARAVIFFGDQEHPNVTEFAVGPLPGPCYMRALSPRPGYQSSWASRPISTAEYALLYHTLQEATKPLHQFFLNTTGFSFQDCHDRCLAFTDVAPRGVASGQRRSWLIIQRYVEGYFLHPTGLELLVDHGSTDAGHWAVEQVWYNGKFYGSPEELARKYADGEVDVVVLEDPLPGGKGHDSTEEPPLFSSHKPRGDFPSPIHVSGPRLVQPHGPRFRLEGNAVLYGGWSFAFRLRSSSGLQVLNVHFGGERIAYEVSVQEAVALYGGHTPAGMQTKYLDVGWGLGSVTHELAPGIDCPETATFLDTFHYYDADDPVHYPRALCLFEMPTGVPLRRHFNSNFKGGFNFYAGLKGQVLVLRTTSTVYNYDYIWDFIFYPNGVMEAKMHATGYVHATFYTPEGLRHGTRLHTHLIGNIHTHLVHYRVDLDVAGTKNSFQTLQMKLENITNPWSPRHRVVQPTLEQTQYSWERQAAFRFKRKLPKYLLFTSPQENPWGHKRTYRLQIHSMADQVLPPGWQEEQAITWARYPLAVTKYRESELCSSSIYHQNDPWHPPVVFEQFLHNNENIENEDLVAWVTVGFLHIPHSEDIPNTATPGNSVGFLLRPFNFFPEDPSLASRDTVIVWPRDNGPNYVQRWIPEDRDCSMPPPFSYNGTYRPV

Structure (SMILES) | IC50 (Recombinant human DAO) [µM] | IC50 [1] [µM] | IC50 (recombinant human VAP-1) [µM] | IC50 (Recombinant human MAO-B) [µM] | neutrophil infiltration in the dorso-lateral striatum and hippocampus ([2]; 30 h after first LPS injection) | microglial cell recruitment and activation in the substantia nigra and dorso-lateral striatum ([2]; dendrites length, surface and volume) | IL-6 levels ([3]; lavage supernatant) | TNF-α levels ([3]; lavage supernatant) | neutrophil infiltration ([3]; lung lavage six hours after LPS)
NC/C(=C/F)COc1ccc(C(N)=O)cc1 [Compound 2, (Z)-4-(2-(Aminomethyl)-3-fluoroallyloxy)benzamide] | < 0.1 | < 0.1 | < 0.1 | > 1 | – | – | – | – | –
NC/C(=C\F)COc1ccc(C(N)=O)cc1 [Compound 3, (E)-4-(2-(Aminomethyl)-3-fluoroallyloxy)benzamide] | > 1 | < 0.1 | < 0.1 | > 10 | – | – | – | – | –
CN(C)C(=O)c1ccc(OC/C(=C\F)CN)c(F)c1 [Compound 4, (Z)-4-(2-(Aminomethyl)-3-fluoroallyloxy)-3-fluoro-N,N-dimethylbenzamide] | < 1 | < 0.1 | – | > 0.1 | – | – | – | – | –
CN(C)C(=O)c1ccc(OC/C(=C\F)CN)c(Cl)c1 [Compound 6, (Z)-4-(2-(Aminomethyl)-3-fluoroallyloxy)-3-chloro-N,N-dimethylbenzamide] | < 1 | – | – | > 1 | – | – | – | – | –
COc1cc(C(=O)N(C)C)ccc1OCC(=CF)CN [Compound 7, 4-(2-(Aminomethyl)-3-fluoroallyloxy)-3-methoxy-N,N-dimethylbenzamide] | < 1 | – | < 0.1 | > 10 | – | – | – | – | –
CN(C)C(=O)c1ccc(SCC(=CF)CN)cc1 [Compound 8, 4-(2-(Aminomethyl)-3-fluoroallylthio)-N,N-dimethylbenzamide] | – | – | < 0.1 | > 1 | – | – | – | – | –
NC/C(=C/F)COc1ccc(S(N)(=O)=O)cc1 [Compound 9, (Z)-4-(2-(Aminomethyl)-3-fluoroallyloxy)benzenesulfonamide] | < 1 | < 0.1 | < 0.1 | > 10 | reduced | reduction | diminution | diminution | significant reduction
CN(C)S(=O)(=O)c1ccc(OC/C(=C\F)CN)cc1 [Compound 10, (Z)-4-(2-(Aminomethyl)-3-fluoroallyloxy)-N,N-dimethylbenzenesulfonamide] | > 1 | < 0.1 | – | > 10 | – | – | – | – | –
NC/C(=C\F)COc1ccc(S(N)(=O)=O)cc1 [Compound 11, (E)-4-(2-(Aminomethyl)-3-fluoroallyloxy)benzenesulfonamide] | > 10 | < 0.1 | < 0.1 | > 10 | – | – | – | – | –
CN(C)C(=O)c1ccc(OC/C(=C/F)CN)cc1 [Compound 13, hydrochloride] | > 1 | < 0.1 | < 0.1 | > 0.1 | – | – | – | – | –
CN(C)S(=O)(=O)c1ccc(OC/C(=C/F)CN)cc1 [Compound 14, (E)-4-(2-(Aminomethyl)-3-fluoroallyloxy)-N,N-dimethylbenzenesulfonamide] | > 10 | < 0.1 | – | > 10 | – | – | – | – | –
CN(C)S(=O)(=O)c1cccc(OC/C(=C\F)CN)c1 [Compound 15, (Z)-3-(2-(Aminomethyl)-3-fluoroallyloxy)-N,N-dimethylbenzenesulfonamide] | – | < 0.1 | – | > 100 | – | – | – | – | –
CN(C)C(=O)c1ccc(OC/C(=C\F)CN)cc1 [Compound 18, (Z)-4-(2-(Aminomethyl)-3-fluoroallyloxy)-N,N-dimethylbenzamide] | < 0.1 | < 0.1 | < 0.1 | > 0.1 | – | – | – | – | –
CN(C)C(=O)c1ccc(OC/C(=C\F)CN)c(Br)c1 [Compound 20, (Z)-4-(2-(Aminomethyl)-3-fluoroallyloxy)-3-bromo-N,N-dimethylbenzamide] | < 1 | – | – | > 1 | – | – | – | – | –
CCN(CC)C(=O)c1ccc(OC/C(=C/F)CN)cc1 [Compound 24, (E)-4-(2-(Aminomethyl)-3-fluoroallyloxy)-N,N-diethylbenzamide] | > 10 | < 0.1 | – | > 1 | – | – | – | – | –
CNC(=O)c1ccc(OC/C(=C/F)CN)cc1 [Compound 25, (E)-4-(2-(Aminomethyl)-3-fluoroallyloxy)-N-methylbenzamide] | < 1 | < 0.1 | < 0.1 | > 1 | – | – | – | – | –
Cc1cc(OC/C(=C\F)CN)ccc1C(=O)N(C)C [Compound 26, (Z)-4-(2-(Aminomethyl)-3-fluoroallyloxy)-N,N,2-trimethylbenzamide] | < 1 | – | < 0.1 | > 1 | – | – | – | – | –
CNS(=O)(=O)c1ccc(OC/C(=C/F)CN)cc1 [Compound 28, (E)-4-(2-(Aminomethyl)-3-fluoroallyloxy)-N-methylbenzenesulfonamide] | > 10 | < 0.1 | – | > 10 | – | – | – | – | –
CNS(=O)(=O)c1ccc(OC/C(=C\F)CN)cc1 [Compound 29, (Z)-4-(2-(Aminomethyl)-3-fluoroallyloxy)-N-methylbenzenesulfonamide] | > 1 | < 0.1 | – | > 10 | – | – | – | – | –
CCNS(=O)(=O)c1ccc(OC/C(=C/F)CN)cc1 [Compound 30, (E)-4-(2-(Aminomethyl)-3-fluoroallyloxy)-N-ethylbenzenesulfonamide] | > 10 | < 0.1 | – | > 10 | – | – | – | – | –
CCNS(=O)(=O)c1ccc(OC/C(=C\F)CN)cc1 [Compound 31, (Z)-4-(2-(Aminomethyl)-3-fluoroallyloxy)-N-ethylbenzenesulfonamide] | < 1 | < 0.1 | – | > 1 | – | – | – | – | –
CC(C)NS(=O)(=O)c1ccc(OC/C(=C/F)CN)cc1 [Compound 32, (E)-4-(2-(Aminomethyl)-3-fluoroallyloxy)-N-isopropylbenzenesulfonamide] | > 10 | < 0.1 | – | > 10 | – | – | – | – | –
CC(C)NS(=O)(=O)c1ccc(OC/C(=C\F)CN)cc1 [Compound 33, (Z)-4-(2-(Aminomethyl)-3-fluoroallyloxy)-N-isopropylbenzenesulfonamide] | < 1 | < 0.1 | – | > 10 | – | – | – | – | –
NC/C(=C/F)CCc1ccc(F)cc1 [Mofegiline, reference compound] | – | 0.006 | – | – | – | – | – | – | –
